Data: PMC3154012 (Journal of the American Chemical Society, 2011)

Tests used:
[1] = target: Mn-C1634 (thermostable chimeric P450 heme domain C1634); test: optical absorbance titration, two-component binding fit; set-up: species or system Priestia megaterium; Bacillus subtilis; conditions: Mn(III)-PPIX in place of heme; PBS; 5 μM protein
[2] = target: T1, Mn-BM3h (wild-type cytochrome P450 BM3 heme domain) (Priestia megaterium, UniProt P14779); test: optical absorbance titration; format: binding
T1 sequence (P14779 2-464 limits assumed): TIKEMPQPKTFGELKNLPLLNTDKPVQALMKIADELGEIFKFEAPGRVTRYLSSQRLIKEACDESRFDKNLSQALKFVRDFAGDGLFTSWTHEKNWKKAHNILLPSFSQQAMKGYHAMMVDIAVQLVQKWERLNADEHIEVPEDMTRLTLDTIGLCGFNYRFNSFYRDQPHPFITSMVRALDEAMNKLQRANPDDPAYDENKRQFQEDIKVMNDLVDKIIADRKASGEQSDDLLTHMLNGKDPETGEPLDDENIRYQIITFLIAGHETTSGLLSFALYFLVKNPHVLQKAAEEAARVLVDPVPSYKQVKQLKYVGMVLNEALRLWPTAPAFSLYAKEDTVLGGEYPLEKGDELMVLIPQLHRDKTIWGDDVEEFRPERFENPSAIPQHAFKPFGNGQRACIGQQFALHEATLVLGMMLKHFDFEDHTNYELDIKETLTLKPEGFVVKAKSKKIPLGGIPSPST

CCCCC/C=C\C/C=C\C/C=C\C/C=C\CCCC(=O)O [AA, arachidonic acid]
Kd [1]: 2.5 ± 0.7 µM | Kd [2]: 0.7 ± 0.5 µM
